In patent US7951921B2, “Multivalent carriers of bi-specific antibodies” (Immunomedics, Inc., priority 2003, dated 2011):
Primed or numbered codes have the meaning given here. DTPA′ = diethylenetriaminepentaacetic acid

Key:
[1] = test system: hMN-14IgG-(734scFv)2; assay: Stoichiometry of targetable complexes, In-111 IMP 246 mixed with bsAb, size exclusion HPLC; type: binding; details: 1:10 (IMP 246:bsAb) mole ratio; peak at 7.5 min
Method: (§1) This Example describes experiments designed to determine the stoichiometry of different species of targetable complexes that arise when the targetable divalent construct IMP 246 is mixed with bsAbs hMN-14IgG^(I253A)-(734scFv)2, and hMN-14IgG-(734scFv)2.
(§2) The peptide IMP 246 was dissolved in 100 mL of a solution which contained 0.418 g citric acid and 10.06 g of HPCD buffered at pH 4.3. The solution was filter sterilized through a 0.22 ? m Millex GV filters in 1 mL aliquots into vials that were immediately frozen and lyophilized.
(§3) The IMP 246 was labeled with In-111 as follows. The In-111 was diluted with 0.5 mL water and added to a lyophilized IMP 246 kit. The solution was allowed to incubate at room temperature for 10 min. A 1.5 mL aliquot of a solution containing […] in 0.5 M NaOAc buffer pH 7.17 was then added to the kit.
(§4) The In-111-labelled IMP 246 was mixed with bsAb in a 1:10 (IMP 246:bsAb) mole ratio and then examined by size exclusion HPLC. When mixed with the mutant bsAb, i.e., hMN-14IgG^(I253A)-(734scFv)2, about 90% of the In-111 label was found at a clean sharp peak at 8.5 min (FIG. 8A). When mixed with hMN-14IgG-(734scFv)2, the peak was somewhat broader, comprised about 83% of the In-111 label and was found at 7.5 min (FIG. 8B). In contrast, the antibody:peptide complexes formed when IMP 192 was used were found at 9.5 min (FIG. 7).

[2] = test system: hMN-14IgG^(I253A)-(734scFv)2; assay: as above; type: binding; details: 1:10 (IMP 246:bsAb) mole ratio; peak at 8.5 min
Method: as §1, §2, §3, §4

[3] = Stability of IMP 246 and its complex in fresh mouse serum, size exclusion HPLC; type: in vitro ADME; details: 37° C.
Method: […] A 10 μL aliquot was removed and mixed with 5 μL of 3.2 mg/mL 14IgG^(I253A)-(734scFv)2 and diluted with 40 μL water. A 10 μL aliquot of the diluted mixture was then examined by size exclusion HPLC.
A 4 μL aliquot of the labeled peptide solution was mixed with 10 μL of the 3.2 mg/mL hMN-14 IgG^(I253A)-(734scFv)2 and diluted in 400 μL of fresh mouse serum. The serum sample was incubated at 37° C. for 16 hr and then analyzed by size exclusion HPLC.
Three broad peaks comprised about 20%, 41% and 37% of the area under the curve of the HPLC tracing.

[4] = test system: Raji cells; assay: Apoptosis of Raji cells after cross-linking of bound hA20IgG-(734scFv)2; type: cell-based; details: Raji cells incubated with hA20IgG-(734scFv)2, 3 days, 37 degrees C.
Method: Raji cells in culture are incubated with hA20IgG-(734scFv)2. To one set of wells is added IMP-246 to cross-link molecules of hA20IgG-(734scFv)2 bound to CD20 on the surface of the Raji cells. A second set of wells to which IMP-246 is not added serve as controls, and both sets of wells incubated at 37 degrees C.
An average of 5 molecules IMP-222 are conjugated to human serum albumin (hAlb-222). The experiment described in the paragraph above is repeated, but hAb-222 is used to cross-link molecules of hA20IgG-(734scFv)2 bound to CD20 on the surface of the Raji cells, in place of IMP-246.

Substance: [Ac-Cys-Lys(DTPA)-Tyr-Lys(DTPA)-NH2]2 (Ac-CK(DTPA′)YK(DTPA′)-NH2; also: disulfide-linked homodimer of two chains, disulfide at 1, other end not in the chain) [IMP 246]
- In-111 label found in complex peak [1]: about 83%
- In-111 label found in complex peak [2]: about 90%
- area under the curve of HPLC tracing in distinct peak at predicted position ([3]; in presence of bi-specific antibody, mouse serum, 16 hr): ≥ 90%
- stability in mouse serum ([3]; peptide alone, 16 hours): unstable
- apoptosis [4]: extensive apoptosis
